Common to all, as to type: cell-based, human
The test system of test [1] is PODXL downregulated HUES6 hESCs. Description: Cholesterol rescue in PODXL knockdown hESCs (Alamar blue, ALP activity). The settings on record: cholesterol addition for 4 days. Here is the method:
(§1) FIGS. 5A-5B. Cholesterol addition rescue hESC renewal in PODXL knockdown cells. […] Quantification of Annexin V/PI-positive cells was executed in triplicates (bottom left panel). P-values were calculated by performing one-way ANOVA against the shRFP hESCs (*p<0.05, **p<0.01, ***p<0.001). (Bottom right panel) Cholesterol restores the c-MYC/TERT expressions decrease by the expression of shPODXL. Western Blots were executed in PODXL knockdown HUES6 hESCs with the addition of cholesterol for 4 days.
(§2) hESCs were cultured with Essential 8 medium (Thermo Fisher, A1517001) which containing 15% Alamar blue at 37° C. for 5 hours. The activities were calculated by measuring absorbance at 570 nm and 600 nm. To count the cell numbers with trypan blue assay, cells were treated with trypsin and the suspended cells were mixed 0.2% trypan blue (1:1) and counted with a hemocytometer.
Alkaline phosphatase (ALP) activities were calculated by adding the substrate of ALP, p-nitrophenyl phosphate (pNPP) (N7653, sigma), in the culture medium. The plate were incubated at 37° C. less than 5 minutes, then the absorbance was measured at 405 nm. For Alkaline phosphatase (ALP) staining, hPSCs were first washed with PBS and used 4% formaldehyde as a fixative. After fixing for 3 minutes, the cells were washed with 1×PBS and were stained by ALP staining reagent (Sigma). Then the cells were further washed by PBS. […]
(Resazurin is reduced to fluorescent resorufin, in cell work by metabolically active cells.)

Another test has as its system PODXL knockdown hESCs. Description: Annexin V/PI apoptosis in PODXL knockdown hESCs with cholesterol. The settings on record: PODXL knockdown for six days. Here is the method: as §1
hESCs were dissociated by accutase. The cells were stained according to manufactures' instructions (eBioscience, 88-8005-72). In brief, cells (5×10^5) were suspended at in 100 μl 1× binding buffer, and then stained with 2.5 μl of Annexin V-FITC. After reaction for 20 min at room temperature, the cells were incubated with 2.5 μl of PI solution for 10 min. Then the cells were diluted with PBS and analyzed with a flow cytometer.
To examine if cholesterol is the major downstream of PODXL, rescue experiment with cholesterol was performed.

Test [2] has as its system c-MYC, TERT, HMGCR, PODXL, TRA-1-60. Put plainly: Western blot in PODXL knockdown hESCs with cholesterol. The settings on record: PODXL downregulated cells, cholesterol for 4 days. Here is the method:
as §1
Whole-cell protein extracts were purified from hPSCs or using RIPA lysis buffer (1% NP40, 50 mM Tris, pH 8.0, 150 mM NaCl, 2 mM EDTA) with the presence of protease inhibitor cocktail (Roche, 04693132001). Protein concentration was quantified by Bio-Rad Bradford Protein Assay. Equal amounts of protein were subjected to a 10% SDS-PAGE gel and blotted onto 0.22 um PVDF membrane (Millipore, ISEQ00010). Blots were blocked in 5% BSA/TBST at room temperature for 1 hr. The blots were incubated with the primary antibodies in 5% BSA/TBST at 4° C. overnight. […]

In another test the test system is CRL2097. Put plainly: iPSC reprogramming efficiency with cholesterol (alkaline phosphatase assay). The settings on record: with OSKM 4 factors. Here is the method: FIG. 6. The addition of cholesterol promote the iPSCs reprogramming efficiency. CRL2097 (passage 9) were seeded and infected with lentivirual vector (OSKM) with final concentration of cholesterol (0, 0.5×, 1×, 2×, 5×, 8×) which was diluted from 500× concentrated SyntheChol® NSO Supplement (S5442, Sigma). Alkaline phosphatase assay was performed to assay the reprogramming efficiency.
CRL2097 (passage 9) were seeded and infected with lentivirual vector (OSKM) with final concentration of cholesterol (0, 0.5×, 1×, 2×, 5×, 8×) which was diluted from 500× concentrated SyntheChol® NSO Supplement (S5442, Sigma). After 4 days viral transduction, cell were replated on matrigel-coated 6-well plates as cell number 27, 000 per well. 2 days later for cell attachment, cholesterol were supplied continually during reprogramming procedure. To better evaluate cholesterol effect to iPSC generation, serum-free defined E8 medium (containing 250 μM sodium butyrate, 50 μg/ml Vitamin C) was used for iPSC generation.
In addition, cholesterol can boost the reprogramming efficiency (total AP positive, 7.62-fold) with OSKM 4 factors.

A further test deals with HUES6. Put plainly: IC50 analyses of three inhibitors of cell growth, HUES6. Here is the method:
(§3) For feeder-free experiments, cells were cultured in a chemically defined medium (Essential 8 medium).
as §2
(§4) To check the functional roles of cholesterol on pluripotency, cholesterol inhibitor simvastatin, AY9944, Methyl-β-cyclodextrin (MBCD) were used to inhibit cholesterol biosynthesis (FIG. 4A). […] HMGCR is the rate-limiting enzyme of cholesterol biosynthesis. The side effects of statin are few and no cytotoxic side effects in human has been reported. AY9944 inhibits Δ7-dehydrocholesterol reductase (DHCR7), and decrease levels of cholesterol (Wassila Gaoua, 2000). Methyl-β-cyclodextrin (MBCD) directly deprived cellular cholesterol (Mahammad and Parmryd, 2015) (FIG. 4A). […] Next, we would like to know whether PSCs are more rely on cholesterol pathway. Thus, we compared the sensitivities of three cholesterol inhibitors in PSCs and three somatic fibroblast cells. […]

The next test relates to H9. Put plainly: IC50 analyses of three inhibitors of cell growth, H9. Here is the method: as §3, §2, §4
A further test concerns hBMSC. Description: IC50 analyses of three inhibitors of cell growth, hBMSC. The settings on record: for IC50: hBMSC, inhibitor treatments for 3 days; for hPSCs more sensitive than human bone marrow mesenchymal stem cells (hBMMSCs): hBMMSCs vs hPSCs. Here is the method:
(§5) Human BMMSCs (Lonza) were cultured in MSC NutriStem XF Medium (Defined, xeno-free, serum-free medium) and grown on Corning CellBIND Surface plates with inhibitor treatments for 3 days. Human neural stem cells (NSCs) were differentiated from H9 hESCs with Gibco PSC Neural Induction Medium (serum-free medium) for 7 days. And the NSCs were replated on matrigel-coated plate and supplied with each inhibitors for 3 days.
(§6) To check the functional roles of cholesterol on pluripotency, cholesterol inhibitor simvastatin, AY9944, Methyl-β-cyclodextrin (MBCD) were used to inhibit cholesterol biosynthesis (FIG. 4A). […] HMGCR is the rate-limiting enzyme of cholesterol biosynthesis. The side effects of statin are few and no cytotoxic side effects in human has been reported. AY9944 inhibits Δ7-dehydrocholesterol reductase (DHCR7), and decrease levels of cholesterol (Wassila Gaoua, 2000). Methyl-β-cyclodextrin (MBCD) directly deprived cellular cholesterol (Mahammad and Parmryd, 2015) (FIG. 4A). […] Next, we would like to know whether PSCs are more rely on cholesterol pathway. Thus, we compared the sensitivities of three cholesterol inhibitors in PSCs and three somatic fibroblast cells. Primary human foreskin fibroblasts (CRL-2097), a human foreskin fibroblast cell line (BJ-5Ta), and a fetal lung fibroblast cell line (IMR-90) were used for comparison.

A further test concerns hNSC. Description: IC50 analyses of three inhibitors of cell growth, hNSC. The following applies: for IC50: hNSC, inhibitors for 3 days; for hPSCs more sensitive than human neural stem cells (hNSCs): hNSCs vs hPSCs. Here is the method:
as §5, §6

For a further test, the system named is BJ-5Ta. Put plainly: IC50 analyses of three inhibitors of cell growth, BJ-5Ta.
Text: as §6

The next test deals with CRL-2097. Description: IC50 analyses of three inhibitors of cell growth, CRL-2097. The settings on record: for IC50 higher in primary fibroblasts than HUES6: primary fibroblasts vs HUES6.
Text: as §6

The test system of a further test is IMR-90. Put plainly: IC50 analyses of three inhibitors of cell growth, IMR-90.
Text: as §6

A further test concerns HUES6 hESCs. Description: Alkaline phosphatase activity after cholesterol inhibitor treatment. The settings on record: treatment for 3 days.
Text: as §6

Test [3] deals with PODXL overexpressing hESCs. Put plainly: Inhibitor treatment of PODXL overexpressing hESCs (Alamar blue, ALP activity). The settings on record: PODXL overexpressed one day, then inhibitor treatment for 3 days. Here is the method: as §2

Read-outs that look alike come from different tables or passages of the source.

Turning to `CC(C)CCC[C@@H](C)[C@H]1CC[C@H]2[C@@H]3CC=C4C[C@@H](O)CC[C@]4(C)[C@H]3CC[C@]12C` [cholesterol], in test [1] (Alamar blue), the “relative cell number loss from PODXL knockdown” value is reported as “prevent”. In addition, the “reduction in ALP activity from PODXL knockdown” value in test [1] was “prevent”. Besides, in the test with PODXL knockdown hESCs, the “apoptosis of the hPSCs” value is “substantially restored”. In [2], the “expression levels of c-MYC, TERT, HMGCR, PODXL, TRA-1-60” value is given as “rescued”. Further, in the test on CRL2097, the “reprogramming efficiency (total AP positive)” value is listed as 7.62 fold.
Regarding `CCC(C)(C)C(=O)O[C@H]1C[C@@H](C)C=C2C=C[C@H](C)[C@H](CC[C@@H]3C[C@@H](O)CC(=O)O3)[C@H]21` [Simvastatin, (1S,3R,7S,8S,8aR)-1,2,3,7,8,8a-Hexahydro-3,7-dimethyl-8-[2-[(2R,4R)-tetrahydro-4-hydroxy-6-oxo-2H-pyran-2-yl]ethyl]-1-naphthalenyly-2,2-dimethyl butanoate], the half-maximal inhibitory concentration (IC50) with HUES6 (Homo sapiens) was found to be 0.16 µM; in the test with H9 (Homo sapiens), 0.02 µM; in the test on hBMSC (Homo sapiens, 72 h), 8.97 µM; with hNSC (Homo sapiens, 72 h), 31.2 µM; in the test on BJ-5Ta (Homo sapiens, no serum), 1.96 µM; in the test with BJ-5Ta (Homo sapiens, serum), 4.36 µM. Also, the IC50 in the test on CRL-2097 (Homo sapiens, CRL-2097, no serum) is 4.35 µM; in the test on CRL-2097 (Homo sapiens, CRL-2097, serum), 5.44 µM; in the test on IMR-90 (Homo sapiens, IMR-90, IMR-90, no serum), 5.46 µM; in the test with IMR-90 (Homo sapiens, IMR-90, IMR-90, serum) it was 4.13 µM. Also, in the test with hBMSC, the “hPSCs more sensitive than human bone marrow mesenchymal stem cells (hBMMSCs)” value is reported as 163 fold. In addition, the “hPSCs more sensitive than human neural stem cells (hNSCs)” value with hNSC was found to be 568 fold. Also, the “IC50 higher in primary fibroblasts than HUES6” value with CRL-2097 came to 52 fold.
Methyl-β-cyclodextrin [MBCD]: the half-inhibitory concentration (IC50) with HUES6 was 1350 µM; in the test with H9 it was 1130 µM; in the test on hBMSC, 3290 µM; in the test on hNSC, 3020 µM; with BJ-5Ta (no serum) it was 2340 µM; with BJ-5Ta (serum) it was 3770 µM. Moreover, the IC50 with CRL-2097 (CRL-2097, no serum) amounted to 2600 µM; in the test on CRL-2097 (CRL-2097, serum), 3860 µM; in the test with IMR-90 (IMR-90, no serum) it was 2640 µM; with IMR-90 (IMR-90, serum), 2810 µM. Also, the “hPSCs more sensitive than human bone marrow mesenchymal stem cells (hBMMSCs)” value with hBMSC is recorded as 2.65 fold. The “hPSCs more sensitive than human neural stem cells (hNSCs)” value in the test on hNSC was determined as 2.44 fold. Also, the “IC50 higher in primary fibroblasts than HUES6” value with CRL-2097 was determined as 2 fold. The “Alkaline phosphatase activities (stem cell marker expression)” value with HUES6 hESCs is given as “hampered”. Also, the “upregulation in self-renewal (cell growth and ALP activity) by PODXL overexpression” value in test [3] is “inhibited”.

The IC50 is the midpoint of a concentration-inhibition curve. A low value points to greater potency.

For the origin of these results see patent US20220090023A1, “METHODS FOR REGULATING POTENCY OF PLURIPOTENT STEM CELLS AND APPLICATIONS THEREOF” (ACADEMIA SINICA, priority 2018, published 2022).
